The record followed here is patent US8846947B2, “Benzimidazoles and related analogs as sirtuin modulators” (GlaxoSmithKline LLC, priority 2008, dated 2014).

Where two headings read alike, the source gives them in different places.

The assay deals with T1, SIRT1 (Homo sapiens, UniProt Q96EB6).
T1 sequence (Q96EB6 1-747): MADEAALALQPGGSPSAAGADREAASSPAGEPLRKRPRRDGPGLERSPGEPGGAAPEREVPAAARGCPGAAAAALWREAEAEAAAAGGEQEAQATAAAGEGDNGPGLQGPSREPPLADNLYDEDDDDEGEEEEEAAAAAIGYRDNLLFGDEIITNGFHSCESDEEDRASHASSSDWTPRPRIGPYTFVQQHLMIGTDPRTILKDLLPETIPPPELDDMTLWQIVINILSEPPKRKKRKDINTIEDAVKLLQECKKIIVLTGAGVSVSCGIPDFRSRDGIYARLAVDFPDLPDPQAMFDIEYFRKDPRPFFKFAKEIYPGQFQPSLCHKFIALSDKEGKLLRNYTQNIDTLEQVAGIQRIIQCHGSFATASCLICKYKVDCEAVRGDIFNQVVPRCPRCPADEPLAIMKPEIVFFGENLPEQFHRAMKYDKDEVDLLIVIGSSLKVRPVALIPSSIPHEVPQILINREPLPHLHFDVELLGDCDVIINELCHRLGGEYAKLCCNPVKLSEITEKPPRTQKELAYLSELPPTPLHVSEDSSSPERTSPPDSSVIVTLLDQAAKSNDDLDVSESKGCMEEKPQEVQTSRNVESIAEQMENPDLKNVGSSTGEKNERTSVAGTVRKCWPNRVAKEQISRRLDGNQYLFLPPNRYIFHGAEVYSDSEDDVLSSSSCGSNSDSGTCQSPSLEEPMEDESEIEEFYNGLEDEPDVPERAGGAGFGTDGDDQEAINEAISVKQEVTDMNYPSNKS
The assay can be described thus: Mass spectrometry based SIRT1 deacetylase activation assay (acetylated p53-derived peptide substrate). Format: biochemical.

The mark [1] stands for this setting: 0.5 μM peptide substrate, 120 μM βNAD+, 10 nM SIRT1, 25 minutes at 25° C.
The mark [2] stands for this setting: 0.5 μM peptide substrate, 120 μM βNAD+, 10 nM SIRT1, 25 min at 25° C.
[3] abbreviates: 0.5 μM peptide substrate, 120 μM βNAD+, 10 nM SIRT1, 25 min at 25° C., read-out: EC1.5.

`O=C(Nc1cccc(CN2CCOCC2)n1)c1cccc2[nH]c(-c3ccccc3C(F)(F)F)nc12` [Compound 672]: under setting [1], the EC1.5 entry was “A (EC1.5<1.0 uM)” and the “Fold Act. (percent maximum fold activation)” value is recorded as “A (Fold activation >200%)”.

Take `O=C(Nc1cccnn1)c1cc(N2CCOCC2)cc2[nH]c(-c3ccccc3C(F)F)nc12` [Compound 737]: under setting [1], the EC1.5 result is “A (EC1.5<1.0 uM)” and the “Fold Act. (percent maximum fold activation)” value is “A (Fold activation >200%)”.

With `O=C(Nc1nccs1)c1cc(F)cc2nc(-c3ccccc3C(F)F)[nH]c12` [Compound 832], under setting [1], the EC1.5 result is “A (EC1.5<1.0 uM)” and the “Fold Act. (percent maximum fold activation)” value was “A (Fold activation >200%)”.

For the molecule `O=C(Nc1cccc(CN2CCOCC2)n1)c1cccc2[nH]c(-c3ccc(Cl)cc3C(F)(F)F)nc12` [Compound 675], under setting [1], the EC1.5 result is on record as “A (EC1.5<1.0 uM)” and the “Fold Act. (percent maximum fold activation)” value was “A (Fold activation >200%)”.

As to `O=C(Nc1cccnc1)c1cccc2[nH]c(-c3cc(N4CCOCC4)ccc3C(F)(F)F)nc12` [Compound 450, 2-(5-morpholino-2-(trifluoromethyl)phenyl)-N-(pyridin-3-yl)-1H-benzo[d]imidazole-4-carboxamide], the “Fold Act. (percent maximum fold activation)” value under setting [2] is on record as “A (Fold activation >200%)”. Also, the EC1.5 under setting [3] was less than 1000 nM.

On to `CC(C)(C)c1nnc(NC(=O)c2cccc3[nH]c(-c4cccc(C(F)(F)F)c4)nc23)s1` [Compound 240], for which the EC1.5 entry is recorded as “C (EC1.5 >25 uM)” and the “Fold Act. (percent maximum fold activation)” value is “B (Fold Activation <200%)”.

Regarding `O=C(Nc1ccccn1)c1cccc2[nH]c(-c3ccc(N4CC[C@@H](F)C4)cc3C(F)(F)F)nc12` [Compound 609], under setting [1], the EC1.5 entry is “B (EC1.5 1-25 uM)” and the “Fold Act. (percent maximum fold activation)” value is “A (Fold activation >200%)”.

`O=C(Nc1ccncc1)c1cccc2[nH]c(-c3cccc(N4CCOCC4)c3)nc12` [Compound 287]: the EC1.5 entry is reported as “A (EC1.5<1.0 uM)” and the “Fold Act. (percent maximum fold activation)” value is “A (Fold activation >200%)”.

Turning to `Cc1cc(C)nc(NC(=O)c2cccc3[nH]c(-c4ccc(F)cc4C(F)(F)F)nc23)c1` [Compound 359], the EC1.5 result is given as “A (EC1.5<1.0 uM)” and the “Fold Act. (percent maximum fold activation)” value was “A (Fold activation >200%)”.

Take `FC(F)(F)c1ccccc1-c1nc2c(NCc3cccnc3)cccc2[nH]1` [Compound 618]: under setting [1], the EC1.5 entry is listed as “C (EC1.5 >25 uM)” and the “Fold Act. (percent maximum fold activation)” value is on record as “B (Fold Activation <200%)”.

Turning to `O=C(Nc1cccc(OCC(O)CO)c1)c1cccc2[nH]c(-c3ccc(Cl)cc3C(F)(F)F)nc12` (centres unmarked) [Compound 740], under setting [1], the EC1.5 entry is recorded as “A (EC1.5<1.0 uM)” and the “Fold Act. (percent maximum fold activation)” value is “A (Fold activation >200%)”.

Turning to `O=C(Nc1cccnc1)c1cccc2[nH]c(-c3cccc(C(F)(F)F)c3)nc12` [Compound 234], the EC1.5 result was “A (EC1.5<1.0 uM)” and the “Fold Act. (percent maximum fold activation)” value is listed as “A (Fold activation >200%)”.

For `C[C@@H]1CN(c2cccc(-c3nc4c(C(=O)Nc5ccccn5)cccc4[nH]3)c2)C[C@H](C)O1` [Compound 577], under setting [2], the “Fold Act. (percent maximum fold activation)” value is recorded as “A (Fold activation >200%)”. Also, the EC1.5 under setting [3] was less than 1000 nM.

Regarding `Cc1nc(-c2ccccc2)c(-c2nc3c(C(=O)Nc4ccccn4)cccc3[nH]2)s1` [Compound 369], the EC1.5 entry is given as “A (EC1.5<1.0 uM)” and the “Fold Act. (percent maximum fold activation)” value is listed as “A (Fold activation >200%)”.

As to `Fc1ccc(C(F)(F)F)c(-c2nc3c(NCc4cccnc4)cccc3[nH]2)c1` [Compound 670], under setting [1], the EC1.5 result is reported as “C (EC1.5 >25 uM)” and the “Fold Act. (percent maximum fold activation)” value was “B (Fold Activation <200%)”.

`O=C(Nc1ccccn1)c1cccc2[nH]c(-c3ccnc(N4CCCC4)c3)nc12` [Compound 540]: the “Fold Act. (percent maximum fold activation)” value under setting [2] is recorded as “A (Fold activation >200%)”. The EC1.5 under setting [3] was less than 1000 nM.

With `C[C@@H]1CN(c2ccc(C(F)(F)F)c(-c3nc4c(C(=O)Nc5nccs5)cccc4[nH]3)c2)C[C@H](C)O1` [Compound 662], under setting [1], the EC1.5 result is “B (EC1.5 1-25 uM)” and the “Fold Act. (percent maximum fold activation)” value is “A (Fold activation >200%)”.

Turning to `O=C(Nc1ccc(CN2CCCC2)nc1)c1cccc2[nH]c(-c3cc(F)ccc3C(F)(F)F)nc12` [Compound 687], under setting [1], the EC1.5 result is listed as “A (EC1.5<1.0 uM)” and the “Fold Act. (percent maximum fold activation)” value is “A (Fold activation >200%)”.

As for `O=C(Nc1ccccn1)c1cccc2[nH]c(-c3ccccc3OCCN3CCCC(F)(F)C3)nc12` [Compound 612], under setting [1], the EC1.5 entry is “C (EC1.5 >25 uM)” and the “Fold Act. (percent maximum fold activation)” value is recorded as “B (Fold Activation <200%)”.

As to `c1ccc(-n2nccc2-c2nc3c(NCc4cccnc4)cccc3[nH]2)cc1` [Compound 671], under setting [1], the EC1.5 result was “C (EC1.5 >25 uM)” and the “Fold Act. (percent maximum fold activation)” value is “B (Fold Activation <200%)”.

On to `O=C(Nc1nccs1)c1cccc2[nH]c(-c3ccc(OC[C@H](O)CO)cc3C(F)(F)F)nc12` [Compound 742], for which, under setting [1], the EC1.5 entry is “A (EC1.5<1.0 uM)” and the “Fold Act. (percent maximum fold activation)” value is “A (Fold activation >200%)”.

Regarding `O=C(Nc1ccccn1)c1cccc2[nH]c(-c3ccc(Cl)cc3C(F)(F)F)nc12` [Compound 313], the EC1.5 result was “A (EC1.5<1.0 uM)” and the “Fold Act. (percent maximum fold activation)” value is reported as “A (Fold activation >200%)”.

For the molecule `O=C(Nc1ccc(CN2CCCC2)nc1)c1cccc2[nH]c(-c3ccccc3C(F)(F)F)nc12` [Compound 683], under setting [1], the EC1.5 entry is reported as “A (EC1.5<1.0 uM)” and the “Fold Act. (percent maximum fold activation)” value is recorded as “A (Fold activation >200%)”.

For `CC(C)(C)c1cccc(-c2nc3c(C(=O)Nc4ccccn4)cccc3[nH]2)c1OCCN1CCOCC1` [Compound 588], under setting [2], the “Fold Act. (percent maximum fold activation)” value is “B (Fold Activation <200%)”. Further, the EC1.5 under setting [3] was 1000 to 25000 nM.

For the molecule `Cc1cnc(NC(=O)c2cccc3[nH]c(-c4c(C(F)(F)F)nn(C)c4Cl)nc23)s1` [Compound 495], the “Fold Act. (percent maximum fold activation)” value under setting [2] is given as “A (Fold activation >200%)”. Besides, the EC1.5 under setting [3] was less than 1000 nM.

`CS(=O)(=O)c1ccc(-c2nc3c(C(=O)Nc4cccnc4)cccc3[nH]2)cc1` [Compound 407]: the “Fold Act. (percent maximum fold activation)” value under setting [2] was “B (Fold Activation <200%)”. The EC1.5 under setting [3] was greater than 25000 nM.

For `O=C(Nc1nccs1)c1cccc2[nH]c(-c3ncccc3C(F)(F)F)nc12` [Compound 296], the EC1.5 result was “B (EC1.5 1-25 uM)” and the “Fold Act. (percent maximum fold activation)” value was “A (Fold activation >200%)”.

`O=C(Nc1cccc(OC[C@H](O)CO)c1)c1cncc2[nH]c(-c3ccccc3C(F)F)nc12` [Compound 713]: under setting [1], the EC1.5 entry was “A (EC1.5<1.0 uM)” and the “Fold Act. (percent maximum fold activation)” value is on record as “A (Fold activation >200%)”.

Take `Cc1cnc(NC(=O)c2cccc3[nH]c(-c4ccc(OC[C@@H](O)CO)cc4C(F)(F)F)nc23)s1` [Compound 746]: under setting [1], the EC1.5 entry is reported as “A (EC1.5<1.0 uM)” and the “Fold Act. (percent maximum fold activation)” value was “A (Fold activation >200%)”.

For the molecule `O=C(Nc1cccnn1)c1cccc2[nH]c(-c3ccc(N4CCCC4)cc3C(F)F)nc12` [Compound 775], under setting [1], the EC1.5 result is “A (EC1.5<1.0 uM)” and the “Fold Act. (percent maximum fold activation)” value was “A (Fold activation >200%)”.

Regarding `O=C(Nc1cccc(OC2CCNCC2)c1)c1cccc2[nH]c(-c3ccccc3C(F)(F)F)nc12` [Compound 597], the “Fold Act. (percent maximum fold activation)” value under setting [2] is “A (Fold activation >200%)”. Further, under setting [3], the EC1.5 is less than 1000 nM.
